Assays:
[1] = system: thigh muscle of C57BL/6 mice; experiment: Intramuscular naked mRNA delivery, IVIS bio-luminescence imaging of injection sites; assay type: in vivo
Excerpt: (§1) Female mice of the strain C57BL/6 (Charles River) were used. Animal identification and conditions of housing, acclimatisation, environment, diet and water was in accordance with the current Standard Operating Procedures at the animal facilities at Oslo University Hospital—The Radium Hospital. Age and weight at start of dosing: 5-6 weeks, 18-20 g. The injection area was shaved before illumination.
(§2) Firefly luciferase mRNA (L-7202—with modified base 5-methoxyuridine (5 moU), and with the TriLink CleanCap™ modification as the capping structure, purchased from TriLink Biotechnologies, San Diego, USA) was used.
(§3) TPCS2a (Amphinex®, PCI Biotech AS, Norway) was used mixed in a volume of 20 μl PBS (e.g. using a 0.000015 μg/μl solution for a 0.0003 μg dose).
(§4) mRNA (in aqueous solution, 20 μl of 0.1 μg/μl from stock solution of 1 μg/μl) in the amounts indicated in the table below were injected into the thigh muscle of each animal, with or without TPCS2a in the amounts indicated.
(§5) […] Animals 7-12 were not illuminated. 20 hours after the injections the animals were analysed by IVIS and assayed for luciferase activity (Luciferase Assay System, Promega, Cat #E1500) in muscle homogenates.
(§6) • 1. 20-24 hours after light (or TPCS2a injection), mice were given an intraperitoneal injection of 3 mg D-Luciferin (200 μl of 15 mg/ml stock). • 2. After approximately 10 minutes the mice were anaesthetized by a subcutaneous injection of Zoletil (15 mg/kg xylasin, 7.5 mg/kg butorphanol, 9 mg/kg zolazepam, and 9 mg tiletamine) • 3. 20 minutes after D-luciferin (Caliper Life Sciences) injection, the mice were placed in the IVIS instrument (IVIS Spectrum, model 124375R from PerkinElmer, Andor camera IS0825R4582; iKon Living Image version: 4.5.2.18424. Binning factor: 8; Excitation filter: Block; Emission filter: Open; f Number: 1) and pictures were taken with automatic exposure of Luminescence. • 4. Bio-luminescence is expressed as “Total Flux” (photon/second)×10^5.

BL/6 mouse skin [2] = experiment: Intradermal naked mRNA delivery, IVIS bio-luminescence imaging of injection sites; assay type: in vivo, mice; conditions: Example 5: intradermal, 2 μg mRNA + 0.003 μg TPCS2a, blue light 30 seconds after administration
Description: as §6
(§7) The materials and methods were as used in Example 1, except that the administration was intradermal and blue light was used (wavelength between 400 and 540 nm with a peak at around 435 nm from the LumiSource illumination device produced by PCI Biotech AS, with a 13 mW/cm^2 fluence rate—a 6 minute illumination delivers 4.7 J/cm^2). Luciferase activity was assessed as set out in Example 1 except that skin homogenates were used.
The materials and methods were as used in Example 2. Animals were injected at two sites (left or right). IVIS was examined as set out in Example 1. […]

[3] = system: thigh muscle of C57BL/6 mice; experiment: Intramuscular naked mRNA delivery, luciferase assay in muscle homogenates; assay type: in vivo
Excerpt: as §1, §2, §3, §4, §5
(§8) Muscle homogenates were prepared from frozen tissue samples using a Precelly homogenizer and lysis buffer with phosphatase and protease inhibitors (MSD, Cat. No. R60TX-2, R70AA-1). Protein analysis was performed using the DC Protein Assay (Biorad). Luciferase is expressed as relative units (RLU=relative luminescence units) per mass of protein in the samples.

BL/6 mouse skin [4] = experiment: Intradermal naked mRNA delivery, luciferase assay in skin homogenates; assay type: in vivo, mice
Description: as §8, §7
The materials and methods were as used in Example 2. Luciferase activity was assessed as set out in Example 1 except that skin homogenates were used.
The materials and methods were as used in Example 3 but with even lower doses. Luciferase activity was assessed as set out in Example 1 except that skin homogenates were used.

BL/6 mice = experiment: Conclusions from Examples: fold increase (PCI/mRNA alone), IVIS and luciferase assay; assay type: in vivo; conditions: illumination 30 seconds after mRNA/photosensitiser injection
Description: Good correspondence between the IVIS and luciferase assay results was observed. The fold increase (PCI/mRNA alone) with illumination only 30 seconds after mRNA/photosensitiser injection is higher than has been achieved in earlier experiments in which illumination was conducted 60 minutes after injection (3-5 times improvement). The improvement relative to using no photosensitiser is in the order of 30 fold. Shorter contact times were also effective at very low photosensitiser dose allowing for reduced side effects in subjects.

[5] = Example 6: intramuscular, 2 μg mRNA + 0.0003 or 0.0001 μg TPCS2a, blue light 30 seconds after injection

Substance: tetraphenyl chlorin disulfonate [TPCS2a]
- bio-luminescence of PCI sites vs control sites receiving mRNA only ([1]; Example 1: intramuscular, 2 μg mRNA + 0.0003 μg TPCS2a, red light 1 J/cm^2 5 minutes after injection): significantly stronger luminescence
- bio-luminescence of PCI sites vs control sites receiving mRNA only [1, 5]: significantly stronger luminescence
- bio-luminescence, effect of PCI at very low dose ([1]; Example 10: intramuscular, 2 μg mRNA + 0.000003 μg TPCS2a, red light 1 J/cm^2, 5 minute interval): An effect was observed
- increase of bio-luminescence by PCI ([1]; Example 10: intramuscular, 2 μg mRNA + 0.0001 μg TPCS2a, red light 1 J/cm^2, 5 minute interval): 5 fold
- increase of bio-luminescence by PCI ([1]; Example 10: intramuscular, 2 μg mRNA + 0.0003 μg TPCS2a, red light 1 J/cm^2, 5 minute interval): 7 fold
- increase of bio-luminescence of PCI sites vs control sites receiving mRNA only (BL/6 mouse skin [2]): around 7.2 fold
- mean fold of increase for the PCI treated sites vs mRNA only sites (luciferase assay) ([3]; Example 1: intramuscular, 2 μg mRNA + 0.0003 μg TPCS2a, red light 652 nm 1 J/cm^2 5 minutes after injection, 20 hours): 4.9 times
- effectiveness of low photosensitiser dose (luminescence and luciferase activity) ([3]; Example 6: intramuscular, 2 μg mRNA + 0.0001 μg TPCS2a, blue light 30 seconds after injection): highly effective
- luciferase activity of PCI sites vs control sites receiving mRNA only [3, 5]: significantly stronger
- luciferase activity in muscle, effectiveness at lower dose ([3]; Example 7: intramuscular, 2 μg mRNA + 0.0003 μg TPCS2a, blue light 30 seconds after injection): effective
- luciferase activity in muscle, effectiveness by photosensitiser dose ([3]; Example 8: intramuscular, 2 μg mRNA + 0.0003 μg TPCS2a (vs 0.003 and 0.1 μg), blue light 10 minutes after injection): more effective than the higher doses
- increase by PCI (luciferase assay) ([3]; Example 9: intramuscular, 2 μg mRNA + 0.0001 μg TPCS2a, red light 0.3 to 3 J/cm^2, 5 minute interval): 8-9 fold
- effect of PCI (luciferase assay), 10 minute interval ([3]; Example 9: intramuscular, 2 μg mRNA + 0.0001 μg TPCS2a, red light 0.3 to 3 J/cm^2, 10 minute interval): effective but not at the same levels as the 5 minute interval
- enhancement of mRNA delivery (luciferase assay), longer contact times (BL/6 mouse skin [4]; Example 2: intradermal, 2 μg mRNA + 0.003 μg TPCS2a, blue light, 30 or 60 min contact time): much less effective
- enhancement of mRNA delivery (luciferase assay) vs mRNA alone (BL/6 mouse skin [4]; Example 2: intradermal, 2 μg mRNA + 0.003 μg TPCS2a, blue light, 10 minute contact time): about 20 times
- luciferase activity in skin, effectiveness by photosensitiser dose (BL/6 mouse skin [4]; Example 3: intradermal, 2 μg mRNA + 0.003 μg TPCS2a (vs 0.01 and 0.05 μg), blue light 30 seconds after injection): more effective than higher doses
- luciferase activity in skin, effectiveness at lower dose (BL/6 mouse skin [4]; Example 4: intradermal, 2 μg mRNA + 0.0003 μg TPCS2a, blue light 30 seconds after injection): effective
- improvement of fold increase (PCI/mRNA alone) with illumination 30 seconds after injection over earlier experiments with illumination 60 minutes after injection (BL/6 mice): 3-5 times
- improvement relative to using no photosensitiser (BL/6 mice): ~30 fold

Source: patent US20240115731A1, “METHOD OF DELIVERING MRNA IN VIVO” (PCI Biotech AS, priority 2021, published 2024)
